SMILES strings stand for the structures. In brackets after ≈: the same amount, converted by molar mass. Several values for one entry are separate records, joined by “and”; a condition that tells them apart may be missing. Equal entries are not always repeated.

Data set [1] has as its system erythrocyte membrane. Format: cell-based, sheep.
Data set [2] addresses T1, S. aureus α-hemolysin (αHL) (Staphylococcus aureus, UniProt P09616). As to the kind of experiment: cell-based.
For data set [3], the system named is S. aureus NCTC 5655. Nature of the data set: microbe, parasite or virus in culture. Format: cell-based. The note with it: Staphylococcus aureus, NCTC5655, Erythrocyte, in Ovis aries, read-out: IC50 (antihemolytic).
Data set [4] deals with S. aureus 8325-4. As to the kind of experiment: microbe, parasite or virus in culture. Particulars: Staphylococcus aureus, 83254, Erythrocyte, in Ovis aries, read-out: IC50 (antihemolytic). Format: cell-based.
For data set [5], the target named is T1, S. aureus α-hemolysin (αHL). The note with it: sheep.
Data set [6] has as its system S. aureus 8325-4. Nature of the data set: microbe, parasite or virus in culture. It is filed as cell-based, Staphylococcus aureus. The note with it: for MBC: Staphylococcus aureus, 83254, 24 h, read-out: Minimal bactericidal concentration MBC.
Data set [7] concerns S. aureus NCTC 5655. As to the kind of experiment: microbe, parasite or virus in culture. The note with it: for MBC: Staphylococcus aureus, NCTC5655, 24 h, read-out: Minimal bactericidal concentration MBC. Format: cell-based, Staphylococcus aureus.

T1 sequence (P09616 27-319 limits assumed): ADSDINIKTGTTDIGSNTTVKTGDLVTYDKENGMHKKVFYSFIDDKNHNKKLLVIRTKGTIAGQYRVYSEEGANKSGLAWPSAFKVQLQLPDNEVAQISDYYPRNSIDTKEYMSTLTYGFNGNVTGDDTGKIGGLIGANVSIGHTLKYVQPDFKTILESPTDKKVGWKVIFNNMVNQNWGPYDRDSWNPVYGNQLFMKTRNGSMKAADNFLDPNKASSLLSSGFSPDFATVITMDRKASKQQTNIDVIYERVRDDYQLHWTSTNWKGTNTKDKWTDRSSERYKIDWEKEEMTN

For `O=C(OC1C(O)C(CO)OC2OC(=O)c3cc(Oc4c(C(=O)O)cc(O)c(O)c4O)c(O)c(O)c3-c3c(cc(O)c(O)c3O)C(=O)OC21)c1cc(O)c(O)c(O)c1` [Compound T3, 3-O-galloyl-1,2-valoneoyl-β-D-glucose], the “order parameter S/S0” value in data set [1] was 0.947 ± 0.028 and 0.911 ± 0.042. The IC50 in data set [2] turned out to be 27.5 ± 1.06 µM; in data set [3], 90.6 ± 22.7 µM; in data set [4] it was 52.2 ± 1.2 µM. Moreover, in data set [5], the “increase of IC50 after washing of erythrocytes” value is “approximately 40 fold”. Moreover, the MBC in data set [6] and in data set [7] was 100 µM (≈ 80.3 µg/mL) each time.
As to `O=C(OCC1OC(OC(=O)c2cc(O)c(O)c(O)c2)C(OC(=O)c2cc(O)c(O)c(O)c2)C(OC(=O)c2cc(O)c(O)c(OC(=O)c3cc(O)c(O)c(O)c3)c2)C1OC(=O)c1cc(O)c(O)c(O)c1)c1cc(O)c(O)c(OC(=O)c2cc(O)c(O)c(O)c2)c1` [Compound T1, 3,6-bis-O-di-O-galloyl-1,2,4-tri-O-galloyl-β-D-glucose], the 50% inhibitory concentration (IC50) in data set [2] came out at 2.94 ± 1.45 µM; in data set [3] it was 7.26 ± 0.29 µM; in data set [4], 8.7 ± 0.81 µM. The MBC was 50 µM (≈ 62.2 µg/mL) in data set [6] and 25 µM (≈ 31.1 µg/mL) in data set [7].
Turning to `O=C(OCC1OC(OC(=O)c2cc(O)c(O)c(O)c2)C(OC(=O)c2cc(O)c(O)c(O)c2)C(OC(=O)c2cc(O)c(O)c(O)c2)C1OC(=O)c1cc(O)c(O)c(O)c1)c1cc(O)c(O)c(O)c1` [Compound T2, 1,2,3,4,5-penta-O-galloyl-β-D-glucose], in data set [1], the “order parameter S/S0” value is 1.267 ± 0.0398 and 0.662 ± 0.072. In addition, the IC50 in data set [2] is 3.52 ± 1.37 µM; in data set [3], 13 ± 1.18 µM; in data set [4], 22.4 ± 2.8 µM. Also, the values for the MBC in data set [6] and in data set [7] were 75 µM (≈ 70.6 µg/mL) and 50 µM (≈ 47 µg/mL), respectively.
Regarding `O=C(OC1OC2COC(=O)c3cc(Oc4c(C(=O)O)cc(O)c(O)c4O)c(O)c(O)c3-c3c(cc(O)c(O)c3O)C(=O)OC2C(O)C1OC(=O)c1cc(O)c(O)c(O)c1)c1cc(O)c(O)c(O)c1` [Compound T4, 1,2-di-O-galloyl-4,6-valoneoyl-β-D-glucose], the “order parameter S/S0” value in data set [1] is 1.074 ± 0.059 and 0.885 ± 0.073. Further, the IC50 in data set [2] was 14.5 ± 1.1 µM; in data set [3], 59.5 ± 9.6 µM; in data set [4] it was 60.4 ± 3.3 µM. The “increase of IC50 after washing of erythrocytes” value in data set [5] is on record as “approximately 40 fold”. Also, the “Minimal bactericidal concentration MBC” value in data set [6] and in data set [7] was 75 µM (≈ 71.6 µg/mL) each time. Further, the MBC in data set [6] and in data set [7] was 100 µM (≈ 95.5 µg/mL) in each case.

(Values after article PMC7341856 (Scientific Reports, 2020).)
